We go through 12 compounds from patent US4581453A, “Guanidinothiazole derivatives containing alkylene bridges, and their use for influencing lipid metabolism” (Bayer Aktiengesellschaft, priority 1982, dated 1986).

Values after ≈ are worked out from the molar mass of the structure shown. Structures can show the parent of a compound that is named as a salt.

Experiment [1] has as its system platelet aggregation in rat PRP. The experiment can be described thus: Platelet aggregation-inhibiting action (PAH) ex vivo, thromboatherosclerosis experiment. The note with it: po, 1.5 h, read-out: PAH ex vivo: Activity, ED50 (dose/concentration range). In kind it is in vivo. As for the experimental part:
The change in optical density of the sample of PRP was recorded over a period of 6 minutes and was determined via the reading after 6 minutes. The percentage inhibition is calculated from the corresponding readings. Moreover, the platelet aggregation was also determined in the context of the thromboatherosclerosis experiment. In carrying out these experiments, the active substance was administered to the animals orally in a Tylose suspension over a period of 10 days. On the 10th day, the animals were exsanguinated 90 minutes after the oral administration of the substance, and the PRP was isolated by means of centrifugation. After the PRP has been isolated, in vitro measurement of the aggregation inhibition starts, analogously to the process which has been described for the in vitro experiments; but without pre-incubation of the samples. 3 parts of rat PRP were also diluted with one part of physiological saline solution.
Atherosclerotic plaques are induced in rats by combination of two noxae (risk factors), that is to say vascular lesion and hyperlipaemia. By supercooling of the arteria carotis comm. (2 minutes, -10° C.), partial or complete endothelial scaling occurs in a locally restricted area. Proliferation of the intima occurs within 10 days, which is a relatively short period for such experiments, and largely corresponds to the early stages of atherosclerotic plaques in humans. The proliferation zones are removed and weighed. The moist weight in the supercooled segment of 1 cm is about 200-300 μg. The animals are additionally given a high-fat diet having the following composition: […]

In another experiment the test system is liver cholesterol. The experiment can be described thus: Cholesterol loading test. In kind it is in vivo, Wistar rats. The note with it: rat, 24 hours. As for the experimental part:
Cholesterol loading tests were carried out on conscious male or female Wistar rats weighing between 130-230 g.
Cholesterol and the substance to be tested were simultaneously administered orally in 0.75% strength tragacanth suspension. After 24 hours, the animals were sacrificed and the cholesterol content of the liver was determined. Cholesterol was determined by the Liebermann-Burchard method using the test combination of Boehringer Mannheim. Control animals received a corresponding volume of cholesterol/tragacanth suspension without the test substance. To monitor the rise in cholesterol as a result of cholesterol loading, tragacanth suspension containing no cholesterol was administered orally to another control group.

For experiment [2], the system named is proliferation of the intima (arteria carotis comm.). The note with it: rat; heparin following parenteral administration; cited from earlier work.
The subject of another experiment is Aspergillus fumigatus. As to the kind of experiment: Antimycetic in vitro activity, series dilution test. In kind it is cell-based. The note with it: Sabourands' milieu d'epreuve, 96 hours, 20° C.; for MIC: read-out: Minimum inhibitory concentration. As for the experimental part: (§1) The in vitro tests were carried out in a series dilution test using germ inocula of on average 5×10^4 germs/ml of substrate. The nutrient medium used was
(§2) (a) Sabourands' milieu d'epreuve for dermatophytes and moulds; and
(§3) (b) meat extract/dextrose broth for yeasts.
(§4) The incubation temperature was 20° C. and the incubation time was 24 to 96 hours for yeasts and 96 hours for dermatophytes and moulds.

A further experiment concerns Candida albicans. The description is as above. In kind it is cell-based. The note with it: meat extract/dextrose broth, 24 to 96 hours, 20° C.; for MIC: read-out: Minimum inhibitory concentration. As for the experimental part:
as §1, §2, §3, §4

In the next experiment the test system is Microsporum canis. The description is as above. In kind it is cell-based. The note with it: Sabourands' milieu d'epreuve, 96 hours, 20° C.; for MIC: read-out: Minimum inhibitory concentration. As for the experimental part:
as §1, §2, §3, §4

The subject of the next experiment is Torulopsis glabrata. Described as above. Type of experiment: cell-based. The note with it: meat extract/dextrose broth, 24 to 96 hours, 20° C.; for MIC: Nakaseomyces glabratus, read-out: Minimum inhibitory concentration. As for the experimental part:
as §1, §2, §3, §4

Experiment [3] relates to Trichophyton mentagrophytes. Described as above. Type of experiment: cell-based. The note with it: Sabourands' milieu d'epreuve, 96 hours, 20° C.; for MIC: read-out: Minimum inhibitory concentration. As for the experimental part:
as §1, §2, §3, §4

Experiment [4] concerns proliferation of the intima (arteria carotis comm.). The experiment can be described thus: Anti-atherosclerotic action, thromboatherosclerosis model. The note with it: po; rat, per orally; read-out: anti-atherosclerotic: Activity, ED50 (dose/concentration range). Type of experiment: in vivo. As for the experimental part:
Because of some fluid transitions between atherosclerosis and thrombosis, we have called the method used "thromboatherosclerosis model".
Folia angiologica 28, 85 (1980).
Atherosclerotic plaques are induced in rats by combination of two noxae (risk factors), that is to say vascular lesion and hyperlipaemia. By supercooling of the arteria carotis comm. (2 minutes, -10° C.), partial or complete endothelial scaling occurs in a locally restricted area. Proliferation of the intima occurs within 10 days, which is a relatively short period for such experiments, and largely corresponds to the early stages of atherosclerotic plaques in humans. The proliferation zones are removed and weighed. The moist weight in the supercooled segment of 1 cm is about 200-300 μg. The animals are additionally given a high-fat diet having the following composition:
52% of normal feed (Altromin®).
The lipid deposits are stained with the fat-soluble dyestuff Sudan IV and can be determined as an additional parameter.

Another experiment addresses T1, Cyclooxygenase (Homo sapiens, UniProt P23219).
T1 construct: endogenous in cells; host or cells: human platelets
The experiment can be described thus: Arachidonic acid metabolism in platelets: cyclooxygenase inhibition. In kind it is cell-based. The note with it: 3H-arachidonic acid, read-out: Cyclooxygenase inhibition: Activity, ED50 (dose/concentration range) (converted). The source says:
In human platelets, ^3 H-arachidonic acid is converted into the products of the cyclooxygenase/thromboxane synthetase path, in particular thromboxane A2, and those of the lipoxygenase path, HETE. Separation of the resulting products by thin layer chromatography gives a characteristic pattern. Inhibitors of the individual enzymatic reactions modify this pattern in a typical manner (Bailey, J. M. et al., Prostaglandins 13, 479-492 (1977)). The action of the compounds according to the invention on individual reactions in arachidonic acid metabolism are shown in Table 2.

T1 sequence (P23219 24-599): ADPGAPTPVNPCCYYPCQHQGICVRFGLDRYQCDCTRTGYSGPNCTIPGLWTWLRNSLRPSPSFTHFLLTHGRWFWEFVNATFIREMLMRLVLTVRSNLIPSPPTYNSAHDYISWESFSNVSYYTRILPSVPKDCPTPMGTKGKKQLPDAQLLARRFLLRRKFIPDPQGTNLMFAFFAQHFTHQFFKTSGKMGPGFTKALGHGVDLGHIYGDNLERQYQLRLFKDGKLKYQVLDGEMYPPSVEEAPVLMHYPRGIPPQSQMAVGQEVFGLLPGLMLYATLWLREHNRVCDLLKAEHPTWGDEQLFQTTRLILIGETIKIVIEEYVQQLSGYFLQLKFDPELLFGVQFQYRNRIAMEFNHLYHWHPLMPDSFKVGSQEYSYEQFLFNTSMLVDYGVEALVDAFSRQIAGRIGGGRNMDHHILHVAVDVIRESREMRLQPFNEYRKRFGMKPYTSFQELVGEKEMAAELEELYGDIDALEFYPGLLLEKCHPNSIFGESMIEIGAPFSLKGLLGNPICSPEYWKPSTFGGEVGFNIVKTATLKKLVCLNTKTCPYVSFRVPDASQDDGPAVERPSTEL

Regarding `c1cc2c(cc1-c1csc(N=C3NCCCN3)n1)CCCC2` [Example 25], the ED50 in [1] amounted to 100 mg/kg. Moreover, the entries for the “Reduction in the increase in liver cholesterol in percent in comparison with the control, following oral cholesterol loading” value in the experiment with liver cholesterol (10 mg/kg per orally) and with liver cholesterol (30 mg/kg per orally) were 65.3% and 78.1%, respectively.

heparin: the “effectiveness in thromboatherosclerosis model (in words), prior agents” value (from here on “effectiveness”) in [2] is reported as “effective”.

Turning to `CC(=O)N1CCN(c2ccc(OCC3COC(Cn4ccnc4)(c4ccc(Cl)cc4Cl)O3)cc2)CC1` (centres unmarked) [Ketoconazol, ketoconazol, reference compound], the MIC with Aspergillus fumigatus is 16 µg/mL (≈ 30.1 µM); with Candida albicans it was less than 1 µg/mL; in the experiment on Microsporum canis, 4 µg/mL (≈ 7.53 µM); in the experiment with Torulopsis glabrata, 1 µg/mL (≈ 1.88 µM); in [3], less than 1 µg/mL.

Consider `CN1CCCNC1=Nc1nc(-c2ccccc2)cs1` [Example 49], for which the ED50 in experiment [1] and in [4] was 100 mg/kg throughout. The IC50 at Cyclooxygenase is 36.7 µM.

`c1ccc(-c2csc(N=C3NCCCN3)n2)cc1` [Example 22]: the MIC with Aspergillus fumigatus was less than 1 µg/mL; in the experiment on Candida albicans, 4 µg/mL (≈ 15.5 µM); with Microsporum canis, less than 1 µg/mL; with Torulopsis glabrata, 32 µg/mL (≈ 124 µM); in experiment [3], less than 1 µg/mL.

For the compound `c1ccc2c(-c3csc(N=C4NCCCN4)n3)cccc2c1` [Example 24], the MIC in the experiment with Aspergillus fumigatus was less than 1 µg/mL; with Candida albicans it was 2 µg/mL (≈ 6.48 µM); in the experiment on Microsporum canis, less than 1 µg/mL; in the experiment on Torulopsis glabrata, 8 µg/mL (≈ 25.9 µM); in [3] it was less than 1 µg/mL.

Consider neomycin, for which, in [2], the “effectiveness” value is recorded as “ineffective”.

`Clc1ccc(-c2csc(N=C3NCCCN3)n2)c(Cl)c1` [Example 27]: the MIC is 8 µg/mL (≈ 24.4 µM) with Aspergillus fumigatus; less than 1 µg/mL with Candida albicans; less than 1 µg/mL with Microsporum canis; 16 µg/mL (≈ 48.9 µM) in the experiment with Torulopsis glabrata; less than 1 µg/mL in [3].

As to `O=C(O)c1cccnc1` [nicotinic acid], the “effectiveness” value in experiment [2] is recorded as “ineffective”.

As for `Cc1cc(Cl)ccc1-c1csc(N=C2NCCCN2)n1` [Example 33, 2-(N-(4'-(4"-Chloro-2"-methylphenyl)-thiazol-2'-yl)imino)-hexahydropyrimidine hydrochloride], the MIC in the experiment with Aspergillus fumigatus worked out at 2 µg/mL; with Candida albicans it was 2 µg/mL; in the experiment on Microsporum canis it was 2 µg/mL; in the experiment with Torulopsis glabrata it was 16 µg/mL; in experiment [3] it was 2 µg/mL.

Take `Clc1ccc(C2(Cn3ccnc3)OCC(COc3ccc(-c4ccccc4)cc3)O2)c(Cl)c1` (centres unmarked) [Doconazol, doconazol, reference compound]: the Minimum inhibitory concentration was 4 µg/mL (≈ 8.31 µM) in the experiment on Aspergillus fumigatus; less than 1 µg/mL in the experiment with Candida albicans; 8 µg/mL (≈ 16.6 µM) in the experiment on Microsporum canis; less than 1 µg/mL with Torulopsis glabrata; less than 1 µg/mL in [3].

As for `Cc1nc(N=C2NCCCN2)sc1C(=O)Nc1ccc(Cl)cc1` [Example 17], the ED50 in experiment [1] amounted to 100 mg/kg. Further, in the experiment on liver cholesterol (100 mg/kg per orally), the “Reduction in the increase in liver cholesterol in percent in comparison with the control, following oral cholesterol loading” value came to 56.1%.
